Numbered stars: 1 amine (or outer) side, 2 acyl side, 3 side chain; on linkers, the order of the positions; unused ones are H or OH. Bridge positions count the residues as written; N and C are the ends. Square brackets hold non-standard residues; d marks the D form. Peptide text beside a SMILES is read from it. Trp(7-OMe) = COc1cccc2c(C[C@H](N)C(=O)O)c[nH]c12; His(π-Bom) = N[C@@H](Cc1cncn1COCc1ccccc1)C(=O)O; Trp(7-Me) = Cc1cccc2c(C[C@H](N)C(=O)O)c[nH]c12; Abu(4-yl) = O=C([C@H](CC[*:3])N[*:1])[*:2]; 2Nal = N[C@@H](Cc1ccc2ccccc2c1)C(=O)O; AEF = NCCOc1ccc(C[C@H](N)C(=O)O)cc1; Cit = NC(=O)NCCC[C@H](N)C(=O)O; Pen = CC(C)(S)[C@H](N)C(=O)O; αMeK = C[C@](N)(CCCCN)C(=O)O; Aib = CC(C)(N)C(=O)O; βAla = NCCC(=O)O
How the values were obtained:
[1] = target: IL-23R-expressing DB cells (Homo sapiens, UniProt Q5VWK5); experiment: DB cells IL23R pSTAT3 cell assay (pStat3HTRF); type: cell-based; conditions: DB cells stimulated with IL-23 0.5 nM, 30 minutes, phospho-STAT3 in cell lysates; read-out: pStat3 HTRF
Text: Human ELISA indicates the IL23-IL23R competitive binding assay described below, Rat ELISA indicates the rat IL-23R competitive binding ELISA assay described below, and pStat3HTRF indicates the DB cells IL-23R pSTAT3 cell assay described below. The peptides depicted in Table E1 are cyclized via a disulfide bridge formed between two Pen residues in these peptides. The peptides depicted in Table E2 are cyclized via a thioether bond between the indicated amino acid residues. Table E2 provides an illustrative structure depicting thioether cyclization, which is indicated in the table by the term “cyclo,” with the cyclic region bracketed immediately following the term “cyclo.” For certain peptides, the residue Abu is present where indicated, whereas in other embodiments, e.g., those related to the non-cyclized form, the Abu may be referred to as a hSer(Cl) or homoSer residue. The petpides depicted in Table E3 are cyclized via a disulfide bridge formed between two Pen residues or a thioether bond between Abu and Cys.
IL-23 plays a central role in supporting and maintaining Th17 differentiation in vivo. This process is thought to be mediated primarily through the Signal Transducer and Activator of Transcription 3 (STAT3), with phosphorylation of STAT3 (to yield pSTAT3) leading to upregulation of RORC and pro-inflammatory IL-17. This cell assay examines the levels of pSTAT3 in IL-23R-expressing DB cells when stimulated with IL-23 in the presence of test compounds. Serial dilutions of test peptides and IL-23 (Humanzyme #HZ-1261) at a final concentration of 0.5 nM, were added to each well in a 96 well tissue culture plate (Corning #CLS3894). DB cells (ATCC #CRL-2289), cultured in RPMI-1640 medium (Thermo Scientific #11875093) supplemented with 10% FBS, were added at 5×10E5 cells/well and incubated for 30 minutes at 37° C. in a 5% CO2 humidified incubator. Changes in phospho-STAT3 levels in the cell lysates were detected using the Cisbio HTRF pSTAT3 (Tyr705) Cellular Assay Kit (Cisbio #62AT3PEH), according to manufacturer's Two Plate Assay protocol.

Stability in rat plasma = type: in vitro ADME; conditions: both sexes, SD rat plasma, EDTA, 37° C., read-out: t½: Rat Plasma EDTA (converted)
[2] = Stability in human fecal homogenate; type: in vitro ADME; conditions: 20% fecal homogenate (supernatant), pH 6.8, 20% human fecal homogenate, anaerobic, 37° C., read-out: t½: Human Feces anaerobic (converted)
Protocol: (§1) Centrifuged the homogenate at 2800×g for 15 min. The supernatant is taken out and used for incubations. […] The final test compound concentration was 20 μM.

[3] = Stability in cynomolgus monkey fecal homogenate; type: in vitro ADME; conditions: 20% fecal homogenate (supernatant), anaerobic, pH 6.8, 20% cynomolgus monkey fecal homogenate, 37° C., read-out: t½: Monkey Feces anaerobic (converted)
Protocol: as §1

[4] = Stability in simulated intestinal fluid (SIF); type: in vitro ADME; conditions: simulated intestinal fluid with pancreatin, pH 6.8, 37° C., matrix is 100 fold dilution of standard SIF concentration; for half-life at 20 μM: read-out: SIF t½ (converted); for SIF t½: 20 μM

IL-23R-expressing DB cells, sequence (Q5VWK5 24-629 limits assumed): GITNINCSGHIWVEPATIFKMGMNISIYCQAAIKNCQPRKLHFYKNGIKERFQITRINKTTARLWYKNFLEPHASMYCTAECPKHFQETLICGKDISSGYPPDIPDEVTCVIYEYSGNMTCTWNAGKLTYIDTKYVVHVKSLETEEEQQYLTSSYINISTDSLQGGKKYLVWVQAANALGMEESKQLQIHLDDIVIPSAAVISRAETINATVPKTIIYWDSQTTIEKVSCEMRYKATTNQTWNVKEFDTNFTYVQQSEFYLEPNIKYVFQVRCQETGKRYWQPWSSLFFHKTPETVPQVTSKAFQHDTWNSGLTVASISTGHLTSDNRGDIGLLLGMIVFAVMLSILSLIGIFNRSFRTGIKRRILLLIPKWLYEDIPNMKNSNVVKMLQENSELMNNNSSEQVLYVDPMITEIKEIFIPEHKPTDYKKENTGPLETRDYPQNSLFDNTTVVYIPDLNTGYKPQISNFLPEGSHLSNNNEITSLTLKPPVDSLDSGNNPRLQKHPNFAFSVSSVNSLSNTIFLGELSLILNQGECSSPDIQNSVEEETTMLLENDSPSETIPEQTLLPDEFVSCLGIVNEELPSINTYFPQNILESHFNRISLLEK

SMILES	IC50 [1] [nM]	half-life at 20 μM (Stability in rat plasma) [h]	half-life at 20 μM [2] [h]	half-life at 20 μM ([3]; cynomolgus monkey) [h]	half-life at 20 μM [4] [h]	half-life at 20 μM [3] [h]	SIF t½ [4] [h]
CC(=O)NCCCC[C@H](NC(=O)[C@](C)(CCCCN)NC(=O)[C@H](Cc1ccc2ccccc2c1)NC(=O)[C@H](Cc1ccc(OCCN)cc1)NC(=O)[C@H]1NC(=O)[C@H](CCC(N)=O)NC(=O)[C@H](Cc2c[nH]c3c(C)cccc23)NC(=O)[C@H]([C@@H](C)O)NC(=O)C(C)(C)NC(=O)[C@@H](NC(C)=O)C(C)(C)SSC1(C)C)C(=O)N[C@@H](CC(N)=O)C(=O)NCCC(N)=O [compound 240] (Ac-[Pen][Aib]T[Trp(7-Me)]Q[Pen][AEF][2Nal][αMeK]K(Ac)N[βAla]-NH2; disulfide 1-6)	17.7	8	4	3	7	–	–
CC(=O)NCCCC[C@@H]1NC(=O)[C@H](Cc2c[nH]c3c(C)cccc23)NC(=O)[C@H]([C@@H](C)O)NC(=O)[C@H](CC(N)=O)NC(=O)[C@@H](NC(C)=O)C(C)(C)SSC(C)(C)[C@@H](C(=O)N[C@@H](Cc2ccc(OCCN)cc2)C(=O)N[C@@H](Cc2ccc3ccccc3c2)C(=O)N[C@@](C)(CCCCN)C(=O)N[C@@H](CCCCNC(C)=O)C(=O)N[C@@H](CC(N)=O)C(=O)N[C@H](Cc2ccccc2)C(N)=O)NC1=O [compound 258]	0.92	> 24	> 24	> 24	14	–	–
CC(=O)N[C@@H]1C(=O)N[C@@H](CC(N)=O)C(=O)N[C@@H]([C@@H](C)O)C(=O)N[C@@H](Cc2c[nH]c3c(C)cccc23)C(=O)N[C@@H](CCCNC(N)=O)C(=O)N[C@H](C(=O)N[C@@H](Cc2ccc(OCCN)cc2)C(=O)N[C@@H](Cc2ccc3ccccc3c2)C(=O)N[C@@](C)(CCCCN)C(=O)N[C@@H](CCCNC(N)=O)C(=O)NCCC(=O)NCCC(N)=O)C(C)(C)SSC1(C)C [compound 281] (Ac-[Pen]NT[Trp(7-Me)][Cit][Pen][AEF][2Nal][αMeK][Cit][βAla][βAla]-NH2; disulfide 1-6)	17.7	> 24	> 24	> 24	14	–	–
CC(=O)NCCCC[C@@H]1NC(=O)[C@H](Cc2c[nH]c3c(C)cccc23)NC(=O)[C@H]([C@@H](C)O)NC(=O)[C@H](CC(N)=O)NC(=O)[C@@H](NC(C)=O)C(C)(C)SSC(C)(C)[C@@H](C(=O)N[C@@H](Cc2cncn2COCc2ccccc2)C(=O)N[C@@H](Cc2ccc3ccccc3c2)C(=O)N[C@@](C)(CCCCN)C(=O)N[C@@H](CCCCNC(C)=O)C(=O)N[C@@H](CC(N)=O)C(=O)N[C@H](CC(C)C)C(N)=O)NC1=O [compound 291] (Ac-[Pen]NT[Trp(7-Me)]K(Ac)[Pen][His(π-Bom)][2Nal][αMeK]K(Ac)N[dL]-NH2; disulfide 1-6)	> 1000	> 24	> 24	> 24	–	–	–
COc1cccc2c(C[C@@H]3NC(=O)[C@H]([C@@H](C)O)NC(=O)[C@H](CC(N)=O)NC(=O)[C@@H](NC(C)=O)C(C)(C)SSC(C)(C)[C@@H](C(=O)N[C@@H](Cc4ccc(OCCN)cc4)C(=O)N[C@@H](Cc4ccc5ccccc5c4)C(=O)N[C@@](C)(CCCCN)C(=O)N[C@@H](CCCCNC(C)=O)C(=O)N[C@@H](CC(N)=O)C(=O)N[C@H](CCCCN)C(N)=O)NC(=O)[C@H](CCCNC(N)=O)NC3=O)c[nH]c12 [compound 300] (Ac-[Pen]NT[Trp(7-OMe)][Cit][Pen][AEF][2Nal][αMeK]K(Ac)N[dK]-NH2; disulfide 1-6)	> 1000	> 24	> 24	–	–	> 24	24
CC(=O)NCCCC[C@H](NC(=O)[C@](C)(CCCCN)NC(=O)[C@H](Cc1ccc2ccccc2c1)NC(=O)[C@H](Cc1ccc(OCCN)cc1)NC(=O)[C@H]1NC(=O)[C@H](CCCCNC(=O)C2CCCCC2)NC(=O)[C@H](Cc2c[nH]c3c(C)cccc23)NC(=O)[C@H]([C@@H](C)O)NC(=O)[C@H](CC(N)=O)NC(=O)[C@@H](NC(C)=O)C(C)(C)SSC1(C)C)C(=O)N[C@@H](CC(N)=O)C(=O)N[C@H](CC(C)C)C(N)=O [compound 316]	5.6	> 24	> 24	–	–	> 24	24
CC(=O)NCCCC[C@H](NC(=O)[C@](C)(CCCCN)NC(=O)[C@H](Cc1ccc2ccccc2c1)NC(=O)[C@H](Cc1ccc(OCCN)cc1)NC(=O)[C@H]1NC(=O)[C@H](CCCCNC(=O)C(C)(C)N)NC(=O)[C@H](Cc2c[nH]c3c(C)cccc23)NC(=O)[C@H]([C@@H](C)O)NC(=O)[C@H](CC(N)=O)NC(=O)[C@@H](NC(C)=O)C(C)(C)SSC1(C)C)C(=O)N[C@@H](CC(N)=O)C(=O)N[C@H](CC(C)C)C(N)=O [compound 322]	0.648	> 24	> 24	> 24	–	–	24
CC(=O)NCCCC[C@@H]1NC(=O)[C@H](Cc2c[nH]c3c(C)cccc23)NC(=O)[C@H]([C@@H](C)O)NC(=O)[C@H](CCC(N)=O)NC(=O)[C@@H](NC(=O)[C@@H](CCCNC(=N)N)NC(C)=O)CCSC[C@@H](C(=O)N[C@@H](Cc2ccc(OCCN)cc2)C(=O)N[C@@H](Cc2ccc3ccccc3c2)C(=O)N[C@@](C)(CCCCN)C(=O)N[C@@H](CCCCNC(C)=O)C(=O)N[C@@H](CC(N)=O)C(=O)N[C@H](CC(C)C)C(N)=O)NC1=O [compound 325] (Ac-[dR][Abu(4-yl)]QT[Trp(7-Me)]K(Ac)C[AEF][2Nal][αMeK]K(Ac)N[dL]-NH2; thioether 2-7)	4.45	> 24	> 24	22	14	–	–
CC(=O)NCCCC[C@H](NC(=O)[C@](C)(CCCCN)NC(=O)[C@H](Cc1ccc2ccccc2c1)NC(=O)[C@H](Cc1ccc(OCCN)cc1)NC(=O)[C@H]1NC(=O)[C@H](CCCNC(N)=O)NC(=O)[C@H](Cc2c[nH]c3c(C)cccc23)NC(=O)[C@H]([C@@H](C)O)NC(=O)[C@H](CC(N)=O)NC(=O)[C@@H](NC(C)=O)C(C)(C)SSC1(C)C)C(=O)N[C@@H](CC(N)=O)C(=O)NC(C)(C)C(=O)N[C@H](CCCNC(=N)N)C(N)=O [compound 345] (Ac-[Pen]NT[Trp(7-Me)][Cit][Pen][AEF][2Nal][αMeK]K(Ac)N[Aib][dR]-NH2; disulfide 1-6)	0.639	> 24	> 24	–	12	> 24	–
CCCCCCCC(=O)NCCCC[C@H](NC(=O)[C@](C)(CCCCN)NC(=O)[C@H](Cc1ccc2ccccc2c1)NC(=O)[C@H](Cc1ccc(OCCN)cc1)NC(=O)[C@H]1NC(=O)[C@H](CCCCNC(C)=O)NC(=O)[C@H](Cc2c[nH]c3c(C)cccc23)NC(=O)[C@H]([C@@H](C)O)NC(=O)[C@H](CC(N)=O)NC(=O)[C@@H](NC(C)=O)C(C)(C)SSC1(C)C)C(=O)N[C@@H](CC(N)=O)C(=O)N[C@H](CC(C)C)C(N)=O [compound 358]	3.03	> 24	> 24	–	–	> 24	24

— US11041000B2, “Peptide inhibitors of interleukin-23 receptor and their use to treat inflammatory diseases” (priority 2019, dated 2021)
